Converted amounts (≈) assume the structure as drawn.
Assays:
[1] = Intrinsic dissolution rate (Vankel punch and die, fiber optics UV at 260 nm, 200 rpm, 37°C); assay type: physicochemical; settings: for Intrinsic dissolution rate: 37°C, 200 rpm
Description: (§1) The solubility and dissolution rate of the Crystalline form A of the free base of compound I prepared as described in Example 1 were tested in various solvents.
(§2) For solubility measurements, excess Form A of the free base of compound I was added to the test solvents and equilibrated for 8 days at 25° C.±0.5° C. and 4 days at 37±0.5° C. Slurries were filtered and the filtrate saved for HPLC solubility determinations. Dissolution rate measurements were carried out in 0.5 cm^2 Vankel punch and die assemblies and a pellet pressure of 2000 pounds. The dissolution was measured using fiber optics dissolution system (C technologies Inc.) and a Cary UV/VIS spectrophotometer, with a stirring rate of 200 rpm. The solution medium was held at 37±0.5° C. and the concentration measurements were made at 260 nm.

[2] = Solubility of Crystalline Form A in test solvents (excess solid equilibrated, filtrate by HPLC); assay type: physicochemical; settings: for pH of final solution: 25°C solubility test; for solubility at 8 days: 25°C, equilibrated 8 days; for solubility at 4 days: 37°C, equilibrated 4 days
Description: as §1, §2

Compound CCc1cc(/C(C)=N/OCc2ccc(C3CCCCC3)c(C(F)(F)F)c2)ccc1CN1CC(C(=O)O)C1 [Compound I, 1-(4-{1-[(E)-4-cyclohexyl-3-trifluoromethyl-benzyloxyimino]-ethyl}-2-ethyl-benzyl)-azetidine-3-carboxylic acid] has an Intrinsic dissolution rate ([1]; 0.01N HCl + SDS (0.1%)) of 0.0245 mg min^−1 cm^−2, an Intrinsic dissolution rate ([1]; 0.1N HCl + SDS (0.1%)) of 0.0368 mg min^−1 cm^−2 and an Intrinsic dissolution rate ([1]; Water + SDS (0.1%)) of 0.0098 mg min^−1 cm^−2. For the same compound, the “Dissolution (overall assessment)” value ([1]; summary of Table 4) was “relatively quick dissolution”, the “pH of final solution” value ([2]; 0.01N HCL) was 2.24 and the “pH of final solution” value ([2]; 0.01N HCl + SDS (0.1%)) was 2.33. The “pH of final solution” value ([2]; 0.1N HCl + SDS (0.1%)) was 1.48, the “pH of final solution” value ([2]; 0.1N HCl) was 1.49 and the “pH of final solution” value ([2]; Phosphate buffer, pH 6.8) was 7.02. For the same compound, the “pH of final solution” value ([2]; Water + SDS (0.1%)) was 7.02, the “pH of final solution” value ([2]; Water) was 6.28 and the solubility at 8 days ([2]; aqueous buffer, thermodynamic from solid, Phosphate buffer, pH 6.8) was 0.47 µg/mL (≈ 0.91 µM). The solubility at 8 days ([2]; aqueous with cosolvent or surfactant or cyclodextrin, thermodynamic from solid, Acetonitrile/water (1:1 v/v)) was > 40000 µg/mL, the solubility at 8 days ([2]; aqueous with cosolvent or surfactant or cyclodextrin, thermodynamic from solid, Ethanol/water (1:1 v/v)) was 13900 µg/mL (≈ 26900 µM) and the solubility at 8 days ([2]; organic solvent or mixture, thermodynamic from solid, Ethanol) was 47600 µg/mL (≈ 92100 µM). The solubility at 8 days ([2]; organic solvent or mixture, thermodynamic from solid, acetonitrile) was 610 µg/mL (≈ 1180 µM), the solubility at 8 days ([2]; pH 1.48, aqueous with cosolvent or surfactant or cyclodextrin, thermodynamic from solid, 0.1N HCl + SDS (0.1%)) was 22 µg/mL and the solubility at 8 days ([2]; pH 1.49, simulated gastric fluid, thermodynamic from solid, 0.1N HCl) was 1.5 µg/mL (≈ 2.9 µM). For the same compound, the solubility at 8 days ([2]; pH 2.24, simulated gastric fluid, thermodynamic from solid, 0.01N HCL) was 0.6 µg/mL (≈ 1.16 µM), the solubility at 8 days ([2]; pH 2.33, aqueous with cosolvent or surfactant or cyclodextrin, thermodynamic from solid, 0.01N HCl + SDS (0.1%)) was 994 µg/mL and the solubility at 8 days ([2]; pH 6.28, thermodynamic from solid, Water) was 33 µg/mL (≈ 63.9 µM). For the same compound, the solubility at 8 days ([2]; pH 7.02, aqueous with cosolvent or surfactant or cyclodextrin, thermodynamic from solid, Water + SDS (0.1%)) was 1190 µg/mL, the solubility at 4 days ([2]; simulated gastric fluid, thermodynamic from solid, 0.01N HCl) was < 0.5 µg/mL and the solubility at 4 days ([2]; simulated gastric fluid, thermodynamic from solid, 0.1N HCl) was 1.9 µg/mL (≈ 3.68 µM). The “Solubility (overall assessment)” value ([2]; summary of Tables 2-3) was “good solubility” and the solubility at 4 days ([2]; thermodynamic from solid, water) was 106 µg/mL (≈ 205 µM).

Source: patent US8173634B2, “Polymorphic form of 1-(4-{1-[(E)-4-cyclohexyl-3-trifluoromethyl-benzyloxyimino]-ethyl}-2-ethyl-benzyl)-azetidine-3-carboxylic” (Novartis AG, priority 2008, dated 2012)
